These results are taken from US11788086B2, “Antitumor compounds and tumor diagnosis” (CBMED GMBH CENTER FOR BIOMARKER RESEARCH IN MEDICINE, priority 2016, dated 2023).

Test [1] deals with rectum cancer PDX models. Briefly: Protein expression in rectum cancer PDX models under chemotherapeutic treatment. The format is in vivo, mice. Particulars: not statistically significant. As for the experimental part:
(§1) Protein expression was analyzed in NP-40 tissue lysates. Therefore normalized protein amounts were loaded onto 8% or 12.5% polyacrylamide gels in consideration of the molecular mass of the protein of interest. Electrophoresis was performed for 1.5 h at 120 V in SDS Running Buffer with the Mini-vertical electrophoresis unit (Amersham Biosciences). Then separated proteins were transferred to PVDF-membranes (Immobilin-P Transfer Membran; Millipore) using a Semi Dry Blotting Unit (JH BioInnovations) at 160 mA for 1.5 hours. Membranes were blocked with 5% non-fat dried milk (AppliChem) in Tris-buffered saline-Tween (TBS-T; 0.2 M Tris, 1.4 M NaCl, pH 7.4, 0.1% Tween) for 1 h, followed by a primary antibody incubation (overnight at 4° C.) and an 1 h secondary antibody incubation (1:3000 dilution, GE Healthcare). All primary antibodies were diluted in 5% bovine serum albumin diluted in TBS-T. Between incubation steps membranes were washed 3 times in TBS-T for 10 min. Membranes were then developed with an enhanced chemiluminescence (ECL) Western blotting system (GE healthcare) using the ChemiImager™ System (Alpha Innotech). Immunoblots were evaluated semi-quantitative using ImageJ (Schneider C A, et al. Nat Meth. 9(2012):671-5) software for densitometric analyses. Relative densities were then calculated by normalizing density values for each protein to the loading control (Actin).
(§2) Samples of patients suffering from colon cancer or GBMs were transplanted into 3 to 6 immunodeficient NOD/SCID mice. The tumor growth was monitored in a daily rhythm. At a size of about 1 cm^3, the tumors were removed and transferred to naive NMRI:nu/nu mice for chemosensitivity testing. Xenotransplanted carcinomas and metastases were treated with different standard and novel chemotherapeutic drugs. During chemosensitivity testing the tumor volume was measured regularly and used to generate growth curves. After a time period of 30-40 days the tumors were excised and analyzed by Immunoblot and Real-Time-PCR. Chemosensitivity data were kindly provided by EPO Berlin-Buch GmbH. Tumor volume of treatment in comparison to control (T/C) was calculated in percent.
To analyze protein expression of different eIF subunits under chemotherapeutic treatment, 4 rectum primary carcinoma (RPC) PDX models and 2 rectum metastasis (RM) PDX model were generated.

Test [2] has as its system eIF protein expression. Briefly: eIF protein expression after chemosensitivity testings in murine GBM xenograft models (immunoblot). The format is in vivo, mice. Conditions: murine GBM xenografts; for eIF protein expression (eIF subunits overall): compared to PBS treated controls. As for the experimental part:
as §1, §2
Additionally to single treatments with each compound, combination therapies for Temozolomide/Everolimus, Temozolomide/Regorafenib and Temozolomide/Thalidomide were investigated.
In general terms: In western blotting, separated proteins are transferred to a membrane and probed.

Test [3] has as its system tumor cells. Conditions: eIF5A2 siRNA combined with GC7, HCC; cited from earlier work.
Test [4] concerns colon cancer PDX models. Briefly: Protein expression in colon cancer patients derived xenograft (PDX) models under chemotherapeutic treatment. The format is in vivo, mice. Particulars: not statistically significant. Here is the method: Protein expression was analyzed in NP-40 tissue lysates. Therefore normalized protein amounts were loaded onto 8% or 12.5% polyacrylamide gels in consideration of the molecular mass of the protein of interest. Electrophoresis was performed for 1.5 h at 120 V in SDS Running Buffer with the Mini-vertical electrophoresis unit (Amersham Biosciences). Then separated proteins were transferred to PVDF-membranes (Immobilin-P Transfer Membran; Millipore) using a Semi Dry Blotting Unit (JH BioInnovations) at 160 mA for 1.5 hours. […] Immunoblots were evaluated semi-quantitative using ImageJ (Schneider C A, et al. Nat Meth. 9(2012):671-5) software for densitometric analyses. Relative densities were then calculated by normalizing density values for each protein to the loading control (Actin).
Samples of patients suffering from colon cancer or GBMs were transplanted into 3 to 6 immunodeficient NOD/SCID mice. The tumor growth was monitored in a daily rhythm. […] During chemosensitivity testing the tumor volume was measured regularly and used to generate growth curves. After a time period of 30-40 days the tumors were excised and analyzed by Immunoblot and Real-Time-PCR. […] Tumor volume of treatment in comparison to control (T/C) was calculated in percent.
A general note: Xenograft models place foreign cells or tissue in a host animal.

Test [5] deals with hepatoma cell. Particulars: in vivo and in vitro; cited from earlier work.
[6] abbreviates: rectum metastasis (RM) PDX models.

With `O=c1[nH]cc(F)c(=O)[nH]1` [5-FU], the eIF3A protein expression entry in test [1] (setting [6]) is “trend in downregulation”.
In the case of `CO[C@H]1C[C@@H]2CC[C@@H](C)[C@@](O)(O2)C(=O)C(=O)N2CCCC[C@H]2C(=O)O[C@H]([C@H](C)C[C@@H]2CC[C@@H](OCCO)[C@H](OC)C2)CC(=O)[C@H](C)/C=C(\C)[C@@H](O)[C@@H](OC)C(=O)[C@H](C)C[C@H](C)/C=C/C=C/C=C/1C` [Everolimus], the “eIF protein expression (eIF subunits overall)” value (shortened to “eIF protein expression”) in test [2] was “almost no difference”. Moreover, the eIF3C protein expression entry in test [2] (vs PBS control) is listed as “upregulated”.
`NCCCCCCCN=C(N)N` [GC7]: the “migration ability of tumor cells” value in test [3] is “effectively reduces”.
As for `CCc1c2c(nc3ccc(OC(=O)N4CCC(N5CCCCC5)CC4)cc13)-c1cc3c(c(=O)n1C2)COC(=O)[C@]3(O)CC` [Irinotecan], the “eIF protein expression” value in test [2] is reported as “differential effects”. In addition, the eIF3A protein expression result in test [1] (setting [6]) is given as “trend in downregulation”.
With `COC(=O)c1ccc2c(c1)NC(=O)/C2=C(\Nc1ccc(N(C)C(=O)CN2CCN(C)CC2)cc1)c1ccccc1` [Nintedanib], in test [1] (setting [6]), the eIF3A protein expression entry is listed as “trend in downregulation” and the eIF3J protein expression entry was “tendency to be downregulated”.
In the case of `O=C1[O][Pt]2([NH][C@@H]3CCCC[C@H]3[NH]2)[O]C1=O` [Oxaliplatin], the mTOR protein expression entry in test [4] (colon primary carcinoma (CPC) PDX models, vs untreated control) is listed as “trend to be upregulated”. Further, the eIF4G protein expression entry in test [1] (rectum primary carcinoma (RPC) PDX) is reported as “increased”.
`CNC(=O)c1cc(Oc2ccc(NC(=O)Nc3ccc(Cl)c(C(F)(F)F)c3)c(F)c2)ccn1` [Regorafenib]: the “eIF protein expression” value in test [2] is on record as “totally down-regulated”. For the same molecule, the eIF3A protein expression entry in test [1] (setting [6]) is reported as “trend in downregulation”.
Consider `CC[C@@H](C(=O)[C@@H](C)[C@@H](O)[C@H](C)[C@@H]1O[C@@H]([C@@H](CC)C(=O)O)CC[C@@H]1C)[C@H]1O[C@]2(C=C[C@@H](O)[C@]3(CC[C@@](C)([C@H]4CC[C@](O)(CC)[C@H](C)O4)O3)O2)[C@H](C)C[C@@H]1C` [Salinomycin], for which the “eIF protein expression” value in test [2] is recorded as “almost no difference”. The eIF3C protein expression result in test [2] (vs PBS control) is recorded as “upregulated”.
Take `CNC(=O)c1cc(Oc2ccc(NC(=O)Nc3ccc(Cl)c(C(F)(F)F)c3)cc2)ccn1` [Sorafenib]: the “eIF protein expression” value in test [2] is on record as “almost no difference”. Besides, the eIF3C protein expression entry in test [2] (vs PBS control) is “upregulated”. In addition, in test [5], the Mcl-1 protein entry is recorded as “reduce”, the “RAF/MEK/ERK signaling transduction pathway” value was “inhibit”, the eIF4E phosphorylation level entry was “reduce” and the hepatoma cell apoptosis entry was “induce”.
For the molecule `O=C1CCC(N2C(=O)c3ccccc3C2=O)C(=O)N1` (stereo not shown) [Thalidomide], the “eIF protein expression” value in test [2] is “almost no difference”. Also, the eIF3C protein expression entry in test [2] (vs PBS control) is “upregulated”.
As for “Bevacizumab: Anti-VEGF monoclonal antibody (angiogenesis inhibitor)”, in test [4] (CM PDX model), the PTEN protein expression result was “seemed to be decreased”. The eIF3K protein expression result in test [2] (vs PBS control) is given as “down-regulation”. In addition, in test [1] (setting [6]), the eIF3A protein expression entry was “trend in downregulation”.
